Experiments:
Test in all cases: relative viability (nuclei count vs DMSO), 5 days (fraction); higher = more cells survive
[1] = compound: C1=CC(=CC=C1NC(=S)NNC2=C(C=C(C=C2[N+](=O)[O-])C(F)(F)F)[N+](=O)[O-])F [Kobe2602] + COc1cc2c(Oc3ccc(NC(=O)C4(C(=O)Nc5ccc(F)cc5)CC4)cc3F)ccnc2cc1OCCCN1CCOCC1 [Foretinib] (partner 0.25 µM)
In short: (§1)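 Medians of duplicate plates are given as relative viability. That measure is the nuclei count in treated wells divided by the count in vehicle wells. Counts were taken on 4× images of lung cancer cell lines in 1536-well plates, 5 days after pin-tool dosing the day after seeding with one drug alone or a fixed anchor-drug dose plus five library-drug doses (not always all listed) in √10 steps.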

[2] = compound: COc1cc2nccc(Oc3ccc(NC(=O)C4(C(=O)Nc5ccc(F)cc5)CC4)cc3)c2cc1OC [Cabozantinib] + Cc1nc(NC(=O)N2CCC[C@H]2C(N)=O)sc1-c1ccnc(C(C)(C)C(F)(F)F)c1 [Alpelisib] (partner 2 µM)
In short: as §1

[3] = compound: O[C@@H](COc1cccc2ncccc12)CN1CCN([C@@H]2c3ccccc3[C@@H]3[C@H](c4ccccc42)C3(F)F)CC1 [Zosuquidar] + CC(=O)Nc1cccc(-n2c(=O)n(C3CC3)c(=O)c3c(Nc4ccc(I)cc4F)n(C)c(=O)c(C)c32)c1 [Trametinib] (partner 0.02 µM)
In short: as §1

[4] = compound: COc1cc2nccc(Oc3ccc(NC(=O)C4(C(=O)Nc5ccc(F)cc5)CC4)cc3)c2cc1OC [Cabozantinib] + CC1(C)CCC(c2ccc(Cl)cc2)=C(CN2CCN(c3ccc(C(=O)NS(=O)(=O)c4ccc(N[C@H](CCN5CCOCC5)CSc5ccccc5)c(S(=O)(=O)C(F)(F)F)c4)cc3)CC2)C1 [Navitoclax] (partner 0.5 µM)
In short: as §1

Cell Line | relative viability ([1]; first compound 0.2 µM) | relative viability ([1]; first compound 0.6325 µM) | relative viability ([1]; first compound 2 µM) | relative viability ([1]; first compound 6.325 µM) | relative viability ([1]; first compound 20 µM) | relative viability ([2]; first compound 0.02 µM) | relative viability ([2]; first compound 0.06325 µM) | relative viability ([2]; first compound 0.2 µM) | relative viability ([2]; first compound 0.6325 µM) | relative viability ([2]; first compound 2 µM) | relative viability ([3]; first compound 0.01 µM) | relative viability ([3]; first compound 0.03162 µM) | relative viability ([3]; first compound 0.1 µM) | relative viability ([3]; first compound 0.3162 µM) | relative viability ([3]; first compound 1 µM) | relative viability ([4]; first compound 0.02 µM) | relative viability ([4]; first compound 0.06325 µM) | relative viability ([4]; first compound 0.2 µM) | relative viability ([4]; first compound 0.6325 µM) | relative viability ([4]; first compound 2 µM)
NCI-H358 | 0.721 | 0.756 | 0.605 | 0.698 | 0.845 | 0.912 | 1.13 | 0.852 | 0.803 | 0.824 | 0.133 | 0.132 | 0.155 | 0.125 | 0.125 | – | – | – | – | –
NCI-H522 | – | – | – | – | – | – | – | – | – | – | 0.81 | 0.706 | 0.843 | 0.723 | 0.719 | – | – | – | – | –
NCI-H650 | 1.1 | 1.01 | 1.05 | 1.05 | 0.907 | 1.04 | 1.01 | 1.13 | 1.05 | 0.926 | 1.22 | 0.957 | 1 | 0.969 | 1.08 | – | – | – | – | –
NCI-H661 | 0.869 | 1.01 | 0.99 | 1.02 | 1.03 | 0.544 | 0.758 | 0.725 | 0.755 | 0.609 | 0.614 | 0.549 | 0.531 | 0.599 | 0.546 | – | – | – | – | –
NCI-H1299 | 1.06 | 1.09 | 1.05 | 1.13 | 1.03 | 1.06 | 1.06 | 1.12 | 1 | 1.12 | – | – | – | – | – | 1.03 | 1.04 | 1.08 | 1.06 | 1.09
NCI-H1563 | 0.996 | 0.928 | 0.964 | 1.02 | 0.996 | 0.931 | 0.916 | 0.912 | 0.864 | 0.806 | – | – | – | – | – | – | – | – | – | –
